The results in this text go back to patent US4156724A, “N-acylamino-alpha-arylacetamido cephalosporins and antibacterial compositions and methods containing them” (Sumitomo Chemical Company, Limited, priority 1974, dated 1979).

In brackets after ≈: the same amount, converted by molar mass.

Holding throughout (format): cell-based
For one assay, the system named is Escherichia coli NIHJ. Kind of assay: Minimum Inhibitory Concentration, Escherichia coli NIHJ. As to conditions: Escherichia coli NIHJ; read-out: Minimum Inhibitory Concentration. The method, then:
(§1) anti-microbial activity tests were carried out on the compounds obtained in the Examples.

Assay [1] deals with Enterobacter aerogeneus No. 75. Put plainly: Minimum Inhibitory Concentration, Enterobacter aerogeneus No. 75. As to conditions: Enterobacter aerogeneus No. 75; read-out: Minimum Inhibitory Concentration. As for the experimental part:
as §1

The next assay deals with Proteus vulgaris HX 19. Kind of assay: Minimum Inhibitory Concentration, Proteus vulgaris HX 19. As to conditions: HX19; Proteus vulgaris HX 19; read-out: Minimum Inhibitory Concentration. The method, then: as §1
The test system of assay [2] is Staphylococcus aureus FS 289. Put plainly: Minimum Inhibitory Concentration, Staphylococcus aureus FS 289. The note with it: FS289; Staphylococcus aureus FS 289, strain resistant to penicillin; read-out: Minimum Inhibitory Concentration. The method, then: as §1
*Staphylococcus aureus FS 289: strain resistant to penicillin

The next assay concerns Serratia No. 72. Put plainly: Minimum Inhibitory Concentration, Serratia No. 72. As for the experimental part: as §1
The test system of assay [3] is Klebsiella pneumoniae 602. Put plainly: Minimum Inhibitory Concentration, Klebsiella pneumoniae 602. As to conditions: Klebsiella pneumoniae, 602, Klebsiella pneumoniae 602; read-out: Minimum Inhibitory Concentration. The method, then: as §1
For assay [4], the system named is Pseudomonas aeruginosa 104. Kind of assay: Minimum Inhibitory Concentration, Pseudomonas aeruginosa 104. As to conditions: Pseudomonas aeruginosa 104; read-out: Minimum Inhibitory Concentration. As for the experimental part: as §1
The subject of assay [5] is Staphylococcus aureus 209 P. Kind of assay: Minimum Inhibitory Concentration, Staphylococcus aureus 209 P. The note with it: Staphylococcus aureus 209 P; read-out: Minimum Inhibitory Concentration. As for the experimental part: as §1

As for `O=C(O)C1=C(CSc2nnc(CO)s2)CSC2C(NC(=O)C(NC(=O)c3cnc4cccnc4c3O)c3ccc(O)c(O)c3)C(=O)N12` (centres unmarked) [Example 178], the MIC with Escherichia coli NIHJ was 3.13 µg/mL (≈ 4.49 µM); in assay [1] it was 6.25 µg/mL (≈ 8.96 µM); with Proteus vulgaris HX 19, 0.2 µg/mL (≈ 0.287 µM); in assay [2] it was 6.25 µg/mL (≈ 8.96 µM); in the assay with Serratia No. 72, 12.5 µg/mL (≈ 17.9 µM); in assay [3] it was 1.56 µg/mL (≈ 2.24 µM). The values for the MIC in assay [4] and in assay [5] were 3.13 µg/mL (≈ 4.49 µM) and 0.78 µg/mL (≈ 1.12 µM), respectively.

As to `Cn1nnnc1SCC1=C(C(=O)O)N2C(=O)C(NC(=O)C(NC(=O)c3cnccc3O)c3ccc(O)c(Cl)c3)C2SC1` (centres unmarked) [Example 179], the MIC was 6.25 µg/mL (≈ 9.87 µM) in the assay with Escherichia coli NIHJ; 12.5 µg/mL (≈ 19.7 µM) in assay [1]; 0.39 µg/mL (≈ 0.616 µM) in the assay with Proteus vulgaris HX 19; 6.25 µg/mL (≈ 9.87 µM) in assay [2]; 50 µg/mL (≈ 79 µM) with Serratia No. 72; 6.25 µg/mL (≈ 9.87 µM) in assay [3]. For the same compound, the values for the MIC in assay [4] and in assay [5] were 12.5 µg/mL (≈ 19.7 µM) and 0.39 µg/mL (≈ 0.616 µM), respectively.

As for `Cn1nnnc1SCC1=C(C(=O)O)N2C(=O)C(NC(=O)C(NC(=O)c3cnc4cccnc4c3O)c3cccc(O)c3)C2SC1` (centres unmarked) [Example 180], the MIC in the assay on Escherichia coli NIHJ worked out at 3.13 µg/mL (≈ 4.82 µM); in assay [1] it was 3.13 µg/mL (≈ 4.82 µM); in the assay with Proteus vulgaris HX 19, 0.1 µg/mL (≈ 0.154 µM); in assay [2], 6.25 µg/mL (≈ 9.62 µM); in the assay with Serratia No. 72 it was 12.5 µg/mL (≈ 19.2 µM); in assay [3] it was 1.56 µg/mL (≈ 2.4 µM). Moreover, the figures for the MIC in assay [4] and in assay [5] were 3.13 µg/mL (≈ 4.82 µM) and 0.78 µg/mL (≈ 1.2 µM), respectively.

As to `O=C(O)C1=C(CSc2nnc(CO)s2)CSC2C(NC(=O)C(NC(=O)c3cnc4cccnc4c3O)c3cccc(O)c3)C(=O)N12` (centres unmarked) [Example 181], the MIC in the assay on Escherichia coli NIHJ stood at 1.56 µg/mL (≈ 2.29 µM); in assay [1], 6.25 µg/mL (≈ 9.17 µM); with Proteus vulgaris HX 19, 0.2 µg/mL (≈ 0.293 µM); in assay [2], 6.25 µg/mL (≈ 9.17 µM); with Serratia No. 72, 12.5 µg/mL (≈ 18.3 µM); in assay [3], 1.56 µg/mL (≈ 2.29 µM). Also, the MIC came out at 3.13 µg/mL (≈ 4.59 µM) in assay [4] and 0.78 µg/mL (≈ 1.14 µM) in assay [5].

Take `CC(=O)OCC1=C(C(=O)O)N2C(=O)C(NC(=O)C(NC(=O)c3cnccc3O)c3ccc(O)c(O)c3)C2SC1` (centres unmarked) [Example 182]: the MIC in the assay with Escherichia coli NIHJ was 12.5 µg/mL (≈ 22.4 µM); in assay [1] it was 25 µg/mL (≈ 44.8 µM); in the assay with Proteus vulgaris HX 19 it was 0.78 µg/mL (≈ 1.4 µM); in assay [2], 3.13 µg/mL (≈ 5.6 µM); in the assay with Serratia No. 72 it was > 200 µg/mL; in assay [3], 25 µg/mL (≈ 44.8 µM). In addition, the MIC in assay [4] was 12.5 µg/mL (≈ 22.4 µM); in assay [5], 0.78 µg/mL (≈ 1.4 µM).

In the case of `Cc1nnc(SCC2=C(C(=O)O)N3C(=O)C(NC(=O)C(NC(=O)c4cnccc4O)c4ccc(O)c(O)c4)C3SC2)s1` (centres unmarked) [Example 183], the MIC is 6.25 µg/mL (≈ 9.91 µM) with Escherichia coli NIHJ; 12.5 µg/mL (≈ 19.8 µM) in assay [1]; 0.39 µg/mL (≈ 0.618 µM) in the assay with Proteus vulgaris HX 19; 6.25 µg/mL (≈ 9.91 µM) in assay [2]; 50 µg/mL (≈ 79.3 µM) in the assay on Serratia No. 72; 12.5 µg/mL (≈ 19.8 µM) in assay [3]. Moreover, the values for the MIC in assay [4] and in assay [5] were 6.25 µg/mL (≈ 9.91 µM) and 0.78 µg/mL (≈ 1.24 µM), respectively.

Regarding `O=C(O)C1=C(CSc2nnc(CO)s2)CSC2C(NC(=O)C(NC(=O)c3cnccc3O)c3ccc(O)c(O)c3)C(=O)N12` (centres unmarked) [Example 184], the MIC with Escherichia coli NIHJ turned out to be 6.25 µg/mL (≈ 9.66 µM); in assay [1], 12.5 µg/mL (≈ 19.3 µM); in the assay with Proteus vulgaris HX 19, 0.78 µg/mL (≈ 1.21 µM); in assay [2], 6.25 µg/mL (≈ 9.66 µM); in the assay on Serratia No. 72, 50 µg/mL (≈ 77.3 µM); in assay [3], 12.5 µg/mL (≈ 19.3 µM). Also, the MIC in assay [4] is 6.25 µg/mL (≈ 9.66 µM); in assay [5] it was 0.78 µg/mL (≈ 1.21 µM).

Turning to `Cn1nnnc1SCC1=C(C(=O)O)N2C(=O)C(NC(=O)C(NC(=O)c3cnccc3O)c3ccc(O)c(O)c3)C2SC1` (centres unmarked) [Example 185], the MIC was found to be 6.25 µg/mL (≈ 10.2 µM) with Escherichia coli NIHJ; 12.5 µg/mL (≈ 20.3 µM) in assay [1]; 0.39 µg/mL (≈ 0.635 µM) in the assay with Proteus vulgaris HX 19; 6.25 µg/mL (≈ 10.2 µM) in assay [2]; 50 µg/mL (≈ 81.4 µM) with Serratia No. 72; 6.25 µg/mL (≈ 10.2 µM) in assay [3]. Moreover, the MIC in assay [4] is 6.25 µg/mL (≈ 10.2 µM); in assay [5] it was 0.78 µg/mL (≈ 1.27 µM).

As for `O=C(O)C1=C(CSc2cnn[nH]2)CSC2C(NC(=O)C(NC(=O)c3cnccc3O)c3ccc(O)c(O)c3)C(=O)N12` (centres unmarked) [Example 186], the MIC worked out at 6.25 µg/mL (≈ 10.4 µM) in the assay with Escherichia coli NIHJ; 12.5 µg/mL (≈ 20.8 µM) in assay [1]; 0.78 µg/mL (≈ 1.3 µM) with Proteus vulgaris HX 19; 6.25 µg/mL (≈ 10.4 µM) in assay [2]; 50 µg/mL (≈ 83.4 µM) against Serratia No. 72; 12.5 µg/mL (≈ 20.8 µM) in assay [3]. The MIC in assay [4] was found to be 12.5 µg/mL (≈ 20.8 µM); in assay [5], 0.78 µg/mL (≈ 1.3 µM).

For `Cn1nnnc1SCC1=C(C(=O)O)N2C(=O)C(NC(=O)C(NC(=O)c3cnccc3O)c3ccc(O)c(F)c3)C2SC1` (centres unmarked) [Example 187], the MIC is 6.25 µg/mL (≈ 10.1 µM) in the assay with Escherichia coli NIHJ; 12.5 µg/mL (≈ 20.3 µM) in assay [1]; 0.39 µg/mL (≈ 0.632 µM) with Proteus vulgaris HX 19; 6.25 µg/mL (≈ 10.1 µM) in assay [2]; 50 µg/mL (≈ 81.1 µM) against Serratia No. 72; 12.5 µg/mL (≈ 20.3 µM) in assay [3]. Also, the MIC in assay [4] was 6.25 µg/mL (≈ 10.1 µM); in assay [5] it was 0.78 µg/mL (≈ 1.26 µM).
